Data published in PubChem BioAssay AID256 (DTP/NCI, 2004).
“And” between values parts separate entries of the source, which are not always exact repeats. Equal values may be shown once. Inconclusive results and toxic doses are left out. How the source made its calls: active means survival T/C of 150% or more; inactive means T/C below 125% in these data.

Test system: CD2F1 mice, L1210 leukemia ip, survival T/C
Experiment: NCI In Vivo Anticancer Drug Screen. Data for tumor model L1210 Leukemia (intraperitoneal) in CD2F1 (CDF1) mice
Details: higher = longer survival
Summary of the method: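 Each value reflects a quotient of treated over vehicle control outcomes in mice with a transplanted tumor.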

[1] = endpoint: mean survival time, dose: 100.0 mg/kg/injection, schedule: Q04DX003 (ip), vehicle: saline
[2] = endpoint: mean survival time, dose: 200.0 mg/kg/injection, schedule: Q04DX003 (ip), vehicle: saline
[3] = endpoint: mean survival time, dose: 400.0 mg/kg/injection, schedule: Q04DX003 (ip), vehicle: saline
[4] = endpoint: mean survival time, dose: 100.0 mg/kg/injection, schedule: Q04DX002 (ip), vehicle: saline with Tween-80
[5] = endpoint: mean survival time, dose: 200.0 mg/kg/injection, schedule: Q04DX002 (ip), vehicle: saline with Tween-80
[6] = endpoint: mean survival time, dose: 50.0 mg/kg/injection, schedule: Q01DX009 (ip), vehicle: saline with Tween-80
[7] = endpoint: mean survival time, dose: 100.0 mg/kg/injection, schedule: Q01DX009 (ip), vehicle: saline with Tween-80
[8] = endpoint: mean survival time, dose: 100.0 mg/kg/injection, schedule: Q04DX003 (ip), vehicle: saline with Tween-80
[9] = endpoint: mean survival time, dose: 200.0 mg/kg/injection, schedule: Q01DX009 (ip), vehicle: saline with Tween-80
[10] = endpoint: mean survival time, dose: 200.0 mg/kg/injection, schedule: Q04DX003 (ip), vehicle: saline with Tween-80
[11] = endpoint: mean survival time, dose: 400.0 mg/kg/injection, schedule: Q01DX009 (ip), vehicle: saline with Tween-80
[12] = endpoint: median survival time, dose: 50.0 mg/kg/injection, schedule: Q01DX009 (ip), vehicle: saline with Tween-80
[13] = endpoint: mean survival time, dose: 400.0 mg/kg/injection, schedule: Q04DX003 (ip), vehicle: saline with Tween-80
[14] = endpoint: mean survival time, dose: 100.0 mg/kg/injection, schedule: Q01DX001 (ip), vehicle: saline with Tween-80
[15] = endpoint: mean survival time, dose: 200.0 mg/kg/injection, schedule: Q01DX001 (ip), vehicle: saline with Tween-80
[16] = endpoint: mean survival time, dose: 400.0 mg/kg/injection, schedule: Q01DX001 (ip), vehicle: saline with Tween-80
[17] = endpoint: mean survival time, dose: 75.0 mg/kg/injection, schedule: Q01DX001 (ip), vehicle: other
[18] = endpoint: mean survival time, dose: 150.0 mg/kg/injection, schedule: Q01DX001 (ip), vehicle: other
[19] = endpoint: mean survival time, dose: 300.0 mg/kg/injection, schedule: Q01DX001 (ip), vehicle: other
[20] = endpoint: mean survival time, dose: 50.0 mg/kg/injection, schedule: Q04DX002 (ip), vehicle: saline with Tween-80
[21] = endpoint: mean survival time, dose: 400.0 mg/kg/injection, schedule: Q04DX002 (ip), vehicle: saline with Tween-80

Measured: T/C

CCC(=O)C(CC)(c1ccc(OC(C)=O)cc1)c1ccc(OC(C)=O)cc1
inactive: [1] 94 % of control | [2] 96 % of control | [3] 96 % of control

CCCCNC(=S)N/N=C/c1ccccn1
inactive: [4] 98 % of control | [5] 109 % of control

O=S(=O)(OCC(COS(=O)(=O)c1ccccc1)(COS(=O)(=O)c1ccccc1)COS(=O)(=O)c1ccccc1)c1ccccc1
inactive: [6] 96 % of control | [7] 97 % of control | [8] 86 % of control | [9] 95 % of control | [10] 89 % of control

COc1ccc(CNC(C#N)c2ccccc2)cc1OC (centres undefined)
inactive: [7] 97 % of control | [9] 104 % of control | [11] 97 % of control

Clc1ccccc1C(Nc1cnccn1)Nc1cnccn1
inactive: endpoint: median survival time, dose: 25.0 mg/kg/injection, schedule: Q01DX009 (ip), vehicle: saline with Tween-80 97 % of control and 102 % of control | [12] 97 % of control and 110 % of control | endpoint: median survival time, dose: 100.0 mg/kg/injection, schedule: Q01DX009 (ip), vehicle: saline with Tween-80 108 % of control and 109 % of control | endpoint: median survival time, dose: 200.0 mg/kg/injection, schedule: Q01DX009 (ip), vehicle: saline with Tween-80 113 % of control and 124 % of control | endpoint: median survival time, dose: 400.0 mg/kg/injection, schedule: Q01DX009 (ip), vehicle: saline with Tween-80 92 % of control

O=S(CC(O)(c1ccccc1)c1ccccc1)c1ccccc1 (centres undefined)
inactive: [8] 93 % of control | [10] 97 % of control | [13] 97 % of control

O=C(O)C/[N+]([O-])=N\O
inactive: [1] 96 % of control | [2] 102 % of control | [3] 105 % of control

CCC(C)C(=O)CN(C)c1ccccc1 (centres undefined)
inactive: [1] 102 % of control | [2] 102 % of control | [3] 100 % of control

Cc1ccc(S(=O)(=O)Nc2ccc(Cl)c(Cl)c2)cc1
inactive: [14] 104 % of control | endpoint: mean survival time, dose: 100.0 mg/kg/injection, schedule: Q01DX009 (ip), vehicle: Klucel (hydroxypropylcellulose) (HPC) 105 % of control | [15] 101 % of control | endpoint: mean survival time, dose: 200.0 mg/kg/injection, schedule: Q01DX009 (ip), vehicle: Klucel (hydroxypropylcellulose) (HPC) 95 % of control | [16] 103 % of control

Cc1ccc(-c2cc(Cl)c3cc(S(=O)(=O)F)ccc3n2)cc1
inactive: [7] 102 % of control | [8] 104 % of control | [9] 98 % of control | [10] 102 % of control | [11] 90 % of control | [13] 107 % of control

CC#CC(=O)O
inactive: endpoint: mean survival time, dose: 100.0 mg/kg/injection, schedule: Q04DX002 (ip), vehicle: saline 98 % of control

O=C(COc1ccc(Cl)cc1Cl)Nc1cc[n+](Cc2ccc(S(=O)(=O)F)cc2)cc1
inactive: [8] 98 % of control | [10] 98 % of control | [13] 95 % of control

Cc1ccc(C2=C(Cl)C(=O)C(c3ccc(C)cc3)=C(Cl)C2=O)cc1
inactive: [17] 92 % of control | [18] 92 % of control | [19] 94 % of control

CC(=O)CCCCOC(C)=O
inactive: [8] 101 % of control | [10] 101 % of control | [13] 98 % of control

Cc1cc(=O)n(Cc2ccccc2)n1-c1ccccc1
inactive: endpoint: mean survival time, dose: 25.0 mg/kg/injection, schedule: Q04DX002 (ip), vehicle: saline with Tween-80 97 % of control | [20] 100 % of control | [4] 87 % of control | [8] 98 % of control

CC(C)N1C(=O)C=C(c2ccc([N+](=O)[O-])cc2)C1=O
inactive: endpoint: mean survival time, dose: 6.25 mg/kg/injection, schedule: Q01DX009 (ip), vehicle: saline with Tween-80 93 % of control | endpoint: mean survival time, dose: 12.5 mg/kg/injection, schedule: Q01DX009 (ip), vehicle: saline with Tween-80 95 % of control | endpoint: mean survival time, dose: 25.0 mg/kg/injection, schedule: Q01DX009 (ip), vehicle: saline with Tween-80 95 % of control | [6] 95 % of control

Cc1ccc(NC(=O)c2ccccc2Cl)c(C)c1
inactive: [7] 110 % of control | [8] 104 % of control | [9] 93 % of control | [10] 101 % of control | [11] 98 % of control | [13] 97 % of control

Cc1cc(O)c(C(C)C)cc1N=O
inactive: [14] 96 % of control | [7] 94 % of control | [8] 103 % of control | [15] 94 % of control | [9] 88 % of control | [10] 100 % of control | [16] 89 % of control | [11] 87 % of control | [13] 106 % of control

O=C1CCCCC1(c1ccccc1)c1ccccc1
inactive: [7] 101 % of control | [8] 101 % of control | [9] 97 % of control | [10] 99 % of control | [11] 98 % of control | [13] 97 % of control

CC(C)(C)C(CCC(=O)O)CC(=O)O (centres undefined)
inactive: [8] 97 % of control | [10] 96 % of control | [13] 100 % of control

CCOC(=O)c1ccc(NC(=O)Nc2ccc(Nc3ccccc3)cc2)cc1
inactive: endpoint: mean survival time, dose: 25.0 mg/kg/injection, schedule: Q04DX003 (ip), vehicle: saline with Tween-80 96 % of control | [6] 96 % of control and 102 % of control | endpoint: mean survival time, dose: 50.0 mg/kg/injection, schedule: Q04DX003 (ip), vehicle: saline with Tween-80 91 % of control | [14] 100 % of control | [7] 96 % of control and 102 % of control | [4] 86 % of control and 97 % of control | [8] 92 % of control | [15] 94 % of control | [9] 95 % of control and 98 % of control | [5] 87 % of control and 91 % of control | [16] 103 % of control | [21] 87 % of control

O=C(O)c1nc2ccccc2c(=O)[nH]1
inactive: [20] 93 % of control | [14] 102 % of control | [4] 93 % of control | [15] 92 % of control | [5] 93 % of control

COc1ccc(C[C@@H]2NC[C@@H](O)[C@@H]2OC(C)=O)cc1
inactive: [7] 98 % of control | [8] 105 % of control | [9] 104 % of control | [10] 103 % of control | [13] 100 % of control

CC(C)CC(Nc1sc([N+](=O)[O-])cc1[N+](=O)[O-])C(=O)O (centres undefined)
inactive: [14] 105 % of control | [15] 102 % of control | [16] 107 % of control

Cc1ccc(N/C=C\c2cc[n+](C)cc2)nc1
inactive: endpoint: mean survival time, dose: 75.0 mg/kg/injection, schedule: Q01DX001 (ip), vehicle: saline 103 % of control | endpoint: mean survival time, dose: 150.0 mg/kg/injection, schedule: Q01DX001 (ip), vehicle: saline 106 % of control | endpoint: mean survival time, dose: 300.0 mg/kg/injection, schedule: Q01DX001 (ip), vehicle: saline 105 % of control

COC(=O)c1ccc(OC)c(I)c1
inactive: [4] 98 % of control | [5] 123 % of control | [21] 98 % of control

O=C(O)CCC(=O)NO
inactive: [1] 109 % of control | [2] 109 % of control | [3] 109 % of control

O=C1C(=O)c2ccccc2-c2ccccc21
inactive: [6] 98 % of control | [7] 102 % of control

OCCc1cc[nH]c1
inactive: [7] 104 % of control | [8] 95 % of control | [9] 101 % of control | [10] 97 % of control | [11] 113 % of control | [13] 97 % of control

O=C(C=[As](c1ccccc1)(c1ccccc1)c1ccccc1)c1ccccc1
inactive: [17] 91 % of control | [18] 100 % of control | [19] 91 % of control

O=C1c2cccc3cc([N+](=O)[O-])cc(c23)C(=O)N1CCN1CCCC1
inactive: endpoint: mean survival time, dose: 1.5 mg/kg/injection, schedule: Q01DX009 (ip), vehicle: saline with Tween-80 107 % of control | endpoint: mean survival time, dose: 1.5 mg/kg/injection, schedule: Q01DX009 (ip), vehicle: saline 100 % of control | endpoint: mean survival time, dose: 3.0 mg/kg/injection, schedule: Q01DX009 (ip), vehicle: saline with Tween-80 113 % of control | endpoint: mean survival time, dose: 3.0 mg/kg/injection, schedule: Q01DX009 (ip), vehicle: saline 100 % of control | endpoint: mean survival time, dose: 6.0 mg/kg/injection, schedule: Q01DX009 (ip), vehicle: saline 113 % of control | endpoint: mean survival time, dose: 12.0 mg/kg/injection, schedule: Q01DX009 (ip), vehicle: saline 115 % of control | endpoint: mean survival time, dose: 24.0 mg/kg/injection, schedule: Q01DX009 (ip), vehicle: saline with Tween-80 91 % of control | endpoint: mean survival time, dose: 24.0 mg/kg/injection, schedule: Q01DX009 (ip), vehicle: saline 111 % of control | endpoint: median survival time, dose: 1.56 mg/kg/injection, schedule: Q01DX009 (ip), vehicle: saline with Tween-80 96 % of control | endpoint: median survival time, dose: 3.12 mg/kg/injection, schedule: Q01DX009 (ip), vehicle: saline with Tween-80 101 % of control and 107 % of control | endpoint: median survival time, dose: 6.25 mg/kg/injection, schedule: Q01DX009 (ip), vehicle: saline with Tween-80 104 % of control and 107 % of control | endpoint: median survival time, dose: 12.5 mg/kg/injection, schedule: Q01DX009 (ip), vehicle: saline with Tween-80 117 % of control and 119 % of control | [12] 86 % of control

CN(C)C/C(=N\OC(=O)c1ccccc1)c1ccc(Cl)cc1
inactive: [6] 107 % of control | [14] 96 % of control | [7] 96 % of control | [15] 104 % of control | [9] 96 % of control | [16] 93 % of control
